Data as given in US20240299345A1, “GINKGOLIDE B AND ITS DERIVATIVES FOR INHIBITING AND/OR REVERSING AGING” (CHINA MEDICAL UNIVERSITY, priority 2023, published 2024).

What was measured:
[1] = test system: 6-month-old female C57BL/6 mice; assay: GB in 6-month-old adult mice (steady state): osteocalcin, myofiber CSA, grip strength; format: in vivo, mouse; conditions: 6-month-old female mice
Experimental: (§1) Forelimb grip strength was measured by a grip strength meter (Muromachi Kikai Co., Tokyo, Japan). Each mouse performed five trials for force measurement, and the values were normalized to body and recorded. A rotarod test was carried out by using the rotarod treadmill (Singa Technology Corporation, Taoyuan City, Taiwan). The speed was adjusted to 4 rpm for 4 sec, 10 rpm for 10 sec, 20 rpm for 20 sec, and then 40 rpm until the mice fell. Mice were familiarized with the rotarod and balance beam by running 5 min for three consecutive days before the onset of experimentation. During the experiment, each mouse performed four trials, and the average time that each rodent was able to stay on top of the rotarod treadmill was recorded. The balance beam test was used to assess subtle motor coordination and balance. After initial training, mice were given four consecutive trials where they were required to cross 60 cm of a round beam (14 mm in diameter). The time for crossing the beam and the number of hind-feet slip were recorded. Hanging endurance was determined by Kondziella's inverted hanging screen test. Mice were putted at the center of grasped wire screen (bar thickness, 2 mm; mesh, 10 mm). After inverting the wire screen, the time of sustained limb tension on the screen were recorded. A fixed maximum hanging limit of 600 seconds was used. Each trial was repeated three times at 30-min interval, the mean values were recorded.
Serum was collected by cardiac puncture upon sacrifice.
The maintenance of muscle mass and strength in adulthood reduces the risk of sarcopenia and improves healthspan. Osteocalcin is necessary to maintain muscle mass and health throughout the whole life, and loss of osteocalcin after the age of 30 leads to muscle loss. Since GB increased osteocalcin in aged osteoblasts, we postulated that oral GB administration could increase osteocalcin and skeletal muscle mass in mice. In a proof-of-principle experiment, we gave GB to 6-month-old female mice equivalent to 30-year-old women for two months (FIG. 1A). […] GB administration enlarged the CSA of the tibialis anterior and soleus muscles (FIGS. 1C to 1E, p=0.021 and <0.0001, respectively) and increased forelimb grip strength (FIG. IF, p=0.036).

[2] = test system: ovariectomized (OVX) female C57BL/6 mice; assay: Postmenopausal (OVX, estrogen-deficient) mouse model: muscle wasting and physical activity; format: in vivo
Experimental: as §1

[3] = GB 3 and 12 mg/kg daily for two months

Question: For `CC1C(=O)OC2C(O)C34C5CC(C(C)(C)C)C36C(OC(=O)C6O)OC4(C(=O)O5)C12O` (centres unmarked) [GB, Ginkgolide B], which “CSA of the soleus muscle” value ([1]; GB 12 mg/kg daily oral 2 months vs vehicle, p<0.0001) is on record?
Answer: enlarged

Question: What about the “CSA of the tibialis anterior muscle” value ([1]; GB 12 mg/kg daily oral 2 months vs vehicle, p=0.021) of the same compound?
Answer: enlarged

Question: And the forelimb grip strength ([1]; GB 12 mg/kg daily oral 2 months vs vehicle, p=0.036)?
Answer: increased

Question: What about the circulating osteocalcin ([1]; GB 12 mg/kg daily oral gavage 2 months vs vehicle, p=0.0114) of the same compound?
Answer: significantly higher

Question: What about the “myofiber CSA” value [2, 3] of the same compound?
Answer: dose-dependently restored

Question: What about the skeletal muscle mass [2, 3] of the same compound?
Answer: dose-dependently restored

Question: And the “decline of motor performance” value ([2]; high-dose GB, two months)?
Answer: fully reversed

Question: What about the forelimb grip strength ([2]; high-dose GB, two months) of the same compound?
Answer: improved
